Experimental data: patent US11844785B2, “3-(phenyl)-N-(4-phenoxybenzyl)-1,2,4-oxadiazole-5-carboxamide compounds for the management of CFTR protein mediated diseases” (Emory University, priority 2015, dated 2023)
Like-named read-outs stand apart in the source and are kept apart here.

Experiments:
hCFTR = hCFTR (Homo sapiens, UniProt P13569); settings: cited from earlier work
[1] = biological target: T1, human CFTR with a R352A mutation (Homo sapiens, UniProt P13569, R352A); assay: Two-electrode voltage clamp (TEVC) on Xenopus oocytes expressing R352A-hCFTR; format: cell-based; settings: FIG. 2B
T1 construct: expressed in transfected cells; host or cells: Xenopus laevis oocytes injected with cRNA; mutant made by Quikchange site-directed mutagenesis of hCFTR/pGEMHE
T1 sequence (P13569 whole entry R352A): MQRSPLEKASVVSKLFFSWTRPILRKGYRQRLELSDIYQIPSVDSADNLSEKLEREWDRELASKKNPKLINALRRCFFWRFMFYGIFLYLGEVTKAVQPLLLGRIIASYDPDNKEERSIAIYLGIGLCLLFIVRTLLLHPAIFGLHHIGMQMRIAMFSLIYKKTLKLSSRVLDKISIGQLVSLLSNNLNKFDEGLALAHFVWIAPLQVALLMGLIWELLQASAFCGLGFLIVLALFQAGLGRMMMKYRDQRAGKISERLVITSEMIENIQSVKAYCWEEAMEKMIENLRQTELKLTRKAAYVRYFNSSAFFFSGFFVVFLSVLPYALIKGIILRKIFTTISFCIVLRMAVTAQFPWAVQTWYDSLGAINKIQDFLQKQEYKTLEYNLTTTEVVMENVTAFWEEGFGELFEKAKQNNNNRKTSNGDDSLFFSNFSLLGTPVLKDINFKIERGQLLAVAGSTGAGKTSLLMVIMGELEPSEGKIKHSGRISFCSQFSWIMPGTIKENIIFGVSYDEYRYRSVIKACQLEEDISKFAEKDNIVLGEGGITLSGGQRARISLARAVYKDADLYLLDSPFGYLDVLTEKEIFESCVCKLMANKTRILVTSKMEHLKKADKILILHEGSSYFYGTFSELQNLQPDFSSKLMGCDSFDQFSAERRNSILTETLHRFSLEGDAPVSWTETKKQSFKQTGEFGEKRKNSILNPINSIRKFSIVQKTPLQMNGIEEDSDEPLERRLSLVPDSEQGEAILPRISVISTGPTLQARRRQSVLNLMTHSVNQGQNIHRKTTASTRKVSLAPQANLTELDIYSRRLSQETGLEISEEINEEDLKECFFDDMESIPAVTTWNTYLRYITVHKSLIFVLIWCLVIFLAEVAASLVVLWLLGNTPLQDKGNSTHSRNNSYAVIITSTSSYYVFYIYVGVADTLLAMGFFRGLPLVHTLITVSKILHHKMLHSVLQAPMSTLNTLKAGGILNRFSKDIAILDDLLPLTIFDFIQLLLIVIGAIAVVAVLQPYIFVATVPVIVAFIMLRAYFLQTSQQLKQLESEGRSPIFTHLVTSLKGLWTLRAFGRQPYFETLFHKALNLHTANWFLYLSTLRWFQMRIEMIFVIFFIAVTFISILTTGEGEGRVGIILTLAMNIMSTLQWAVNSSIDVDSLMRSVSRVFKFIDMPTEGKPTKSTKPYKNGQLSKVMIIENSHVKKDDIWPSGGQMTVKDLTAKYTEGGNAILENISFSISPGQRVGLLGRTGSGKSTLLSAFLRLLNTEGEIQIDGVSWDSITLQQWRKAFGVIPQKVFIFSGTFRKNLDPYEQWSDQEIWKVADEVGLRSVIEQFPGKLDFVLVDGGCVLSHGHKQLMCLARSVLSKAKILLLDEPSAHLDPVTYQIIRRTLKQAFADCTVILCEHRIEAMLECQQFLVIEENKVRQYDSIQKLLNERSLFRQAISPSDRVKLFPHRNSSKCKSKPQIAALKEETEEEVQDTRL
From the text: (§1) In order to identify compounds that potentiate F508del-hCFTR expressed in Xenopus oocytes, the effects of IOWH-032 on WT, R352A, and F508del-hCFTR were studied using the two-electrode voltage clamp (TEVC) technique. […] See Drumm et al. Chloride conductance expressed by delta F508 and other mutant CFTRs in Xenopus oocytes. Science, 1991, 254(5039): 1797-1799. Extracellular exposure to IOWH-032 potentiated WT and F508del-hCFTR channels.
(§2) Human CFTR cRNAs used in electrophysiology experiments were prepared from constructs encoding WT-hCFTR in the pGEMHE vector (hCFTR/pGEMHE kindly provided by Dr. D. Gadsby, Rockefeller University). The mutants of hCFTR used in this study were prepared using site-directed mutagenesis with the Quikchange protocol (Stratagene, La Jolla, CA) and mutant constructs were verified by sequencing across the entire open reading frame before use. […]
(§3) Standard two-electrode voltage clamp (TEVC) techniques were used to study the effects of chemicals with application of reagents to the extracellular bath. […] Electrode resistances measured 0.5-1.4 MΩ when filled with 3 M KCl and measured in standard ND96 bath solution that contained (in mM): 96 NaCl, 2 KCl, 1 MgCl2, and 5 HEPES (pH 7.5). […]

F508del-hCFTR = biological target: T2, F508del-hCFTR (Homo sapiens, UniProt P13569, DEL508-508); assay: Two-electrode voltage clamp (TEVC) on Xenopus oocytes expressing F508del-hCFTR; format: cell-based; settings: FIG. 2C
T2 construct: expressed in transfected cells; host or cells: Xenopus laevis oocytes injected with cRNA; mutant made by Quikchange site-directed mutagenesis of hCFTR/pGEMHE
T2 sequence (P13569 with tags, fused parts or gaps DEL508-508): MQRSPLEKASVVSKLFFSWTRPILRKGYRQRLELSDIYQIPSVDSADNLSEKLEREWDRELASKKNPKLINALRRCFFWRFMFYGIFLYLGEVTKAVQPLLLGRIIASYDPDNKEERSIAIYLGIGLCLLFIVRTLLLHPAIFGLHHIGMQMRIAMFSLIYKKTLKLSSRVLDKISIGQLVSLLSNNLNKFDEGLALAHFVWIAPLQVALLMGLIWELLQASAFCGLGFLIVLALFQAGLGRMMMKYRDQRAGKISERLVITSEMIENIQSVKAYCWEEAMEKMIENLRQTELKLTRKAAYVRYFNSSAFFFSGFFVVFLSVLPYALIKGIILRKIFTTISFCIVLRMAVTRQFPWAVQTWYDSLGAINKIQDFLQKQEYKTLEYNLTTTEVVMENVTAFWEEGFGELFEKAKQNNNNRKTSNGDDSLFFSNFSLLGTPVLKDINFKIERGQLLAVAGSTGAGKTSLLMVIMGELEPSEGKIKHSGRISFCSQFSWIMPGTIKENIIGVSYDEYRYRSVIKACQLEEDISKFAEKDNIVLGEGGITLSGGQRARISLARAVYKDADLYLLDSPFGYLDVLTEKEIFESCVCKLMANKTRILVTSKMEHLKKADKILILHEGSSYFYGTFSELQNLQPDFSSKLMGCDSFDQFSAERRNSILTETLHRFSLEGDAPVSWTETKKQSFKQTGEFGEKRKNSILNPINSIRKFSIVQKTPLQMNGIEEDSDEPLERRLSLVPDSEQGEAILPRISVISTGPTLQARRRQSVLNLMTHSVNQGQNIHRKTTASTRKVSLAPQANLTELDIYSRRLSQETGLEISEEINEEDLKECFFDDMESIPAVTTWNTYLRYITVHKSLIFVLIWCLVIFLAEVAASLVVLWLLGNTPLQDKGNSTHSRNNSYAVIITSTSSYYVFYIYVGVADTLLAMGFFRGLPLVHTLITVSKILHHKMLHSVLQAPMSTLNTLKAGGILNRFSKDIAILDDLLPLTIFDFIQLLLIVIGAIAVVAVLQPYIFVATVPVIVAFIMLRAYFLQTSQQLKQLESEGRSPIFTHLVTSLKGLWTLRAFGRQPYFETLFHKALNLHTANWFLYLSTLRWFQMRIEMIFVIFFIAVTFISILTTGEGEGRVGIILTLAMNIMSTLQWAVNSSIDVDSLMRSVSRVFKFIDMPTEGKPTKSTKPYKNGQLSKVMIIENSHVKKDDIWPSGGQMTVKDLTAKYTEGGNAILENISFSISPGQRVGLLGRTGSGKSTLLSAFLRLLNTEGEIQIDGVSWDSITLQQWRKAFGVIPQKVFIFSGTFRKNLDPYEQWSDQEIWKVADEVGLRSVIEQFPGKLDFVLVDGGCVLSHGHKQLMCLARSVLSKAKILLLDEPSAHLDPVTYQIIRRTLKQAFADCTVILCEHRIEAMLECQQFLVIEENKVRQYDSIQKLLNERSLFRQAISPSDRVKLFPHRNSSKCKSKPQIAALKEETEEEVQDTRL
From the text: as §1, §2, §3

[2] = biological target: T3, wildtype human CFTR (WT-hCFTR) (Homo sapiens, UniProt P13569); assay: Two-electrode voltage clamp (TEVC) on Xenopus oocytes expressing WT-hCFTR; format: cell-based; settings: for Kd: FIG. 2A
T3 construct: expressed in transfected cells; host or cells: Xenopus laevis oocytes injected with cRNA (hCFTR/pGEMHE, gift of D. Gadsby)
T3 sequence (P13569 whole entry): as the sequence (P13569 whole entry R352A) above, with A352R counted along it
From the text: as §1
Human CFTR cRNAs used in electrophysiology experiments were prepared from constructs encoding WT-hCFTR in the pGEMHE vector (hCFTR/pGEMHE kindly provided by Dr. D. Gadsby, Rockefeller University). The mutants of hCFTR used in this study were prepared using site-directed mutagenesis with the Quikchange protocol (Stratagene, La Jolla, CA) and mutant constructs were verified by sequencing across the entire open reading frame before use. Xenopus laevis oocytes were injected with 0.4-10 ng of CFTR cRNAs, and were incubated at 17° C. in modified Liebovitz's L-15 media with the addition of HEPES (pH 7.5), penicillin, and streptomycin. Recordings were made typically 24-96 hours after the injection of cRNAs.
Standard two-electrode voltage clamp (TEVC) techniques were used to study the effects of chemicals with application of reagents to the extracellular bath. Each oocyte was injected with CFTR cRNA along with cRNA encoding the beta2-adrenergic receptor (β2AR). Electrode resistances measured 0.5-1.4 MΩ when filled with 3 M KCl and measured in standard ND96 bath solution that contained (in mM): 96 NaCl, 2 KCl, 1 MgCl2, and 5 HEPES (pH 7.5). CFTR channels were activated by exposure to 10 μM isoproterenol (ISO) in ND 96 and alternatively assayed in the presence or absence of different concentrations of compounds in the bath solution, typically in the continuing presence of ISO. Currents were acquired with an Axoclamp 900A amplifier and Clampex 10.2 software, and current data were digitized at 2 kHz.

mCFTR = mCFTR (Mus musculus, UniProt P26361); settings: cited from earlier work
mCFTR, sequence (P26361 whole entry): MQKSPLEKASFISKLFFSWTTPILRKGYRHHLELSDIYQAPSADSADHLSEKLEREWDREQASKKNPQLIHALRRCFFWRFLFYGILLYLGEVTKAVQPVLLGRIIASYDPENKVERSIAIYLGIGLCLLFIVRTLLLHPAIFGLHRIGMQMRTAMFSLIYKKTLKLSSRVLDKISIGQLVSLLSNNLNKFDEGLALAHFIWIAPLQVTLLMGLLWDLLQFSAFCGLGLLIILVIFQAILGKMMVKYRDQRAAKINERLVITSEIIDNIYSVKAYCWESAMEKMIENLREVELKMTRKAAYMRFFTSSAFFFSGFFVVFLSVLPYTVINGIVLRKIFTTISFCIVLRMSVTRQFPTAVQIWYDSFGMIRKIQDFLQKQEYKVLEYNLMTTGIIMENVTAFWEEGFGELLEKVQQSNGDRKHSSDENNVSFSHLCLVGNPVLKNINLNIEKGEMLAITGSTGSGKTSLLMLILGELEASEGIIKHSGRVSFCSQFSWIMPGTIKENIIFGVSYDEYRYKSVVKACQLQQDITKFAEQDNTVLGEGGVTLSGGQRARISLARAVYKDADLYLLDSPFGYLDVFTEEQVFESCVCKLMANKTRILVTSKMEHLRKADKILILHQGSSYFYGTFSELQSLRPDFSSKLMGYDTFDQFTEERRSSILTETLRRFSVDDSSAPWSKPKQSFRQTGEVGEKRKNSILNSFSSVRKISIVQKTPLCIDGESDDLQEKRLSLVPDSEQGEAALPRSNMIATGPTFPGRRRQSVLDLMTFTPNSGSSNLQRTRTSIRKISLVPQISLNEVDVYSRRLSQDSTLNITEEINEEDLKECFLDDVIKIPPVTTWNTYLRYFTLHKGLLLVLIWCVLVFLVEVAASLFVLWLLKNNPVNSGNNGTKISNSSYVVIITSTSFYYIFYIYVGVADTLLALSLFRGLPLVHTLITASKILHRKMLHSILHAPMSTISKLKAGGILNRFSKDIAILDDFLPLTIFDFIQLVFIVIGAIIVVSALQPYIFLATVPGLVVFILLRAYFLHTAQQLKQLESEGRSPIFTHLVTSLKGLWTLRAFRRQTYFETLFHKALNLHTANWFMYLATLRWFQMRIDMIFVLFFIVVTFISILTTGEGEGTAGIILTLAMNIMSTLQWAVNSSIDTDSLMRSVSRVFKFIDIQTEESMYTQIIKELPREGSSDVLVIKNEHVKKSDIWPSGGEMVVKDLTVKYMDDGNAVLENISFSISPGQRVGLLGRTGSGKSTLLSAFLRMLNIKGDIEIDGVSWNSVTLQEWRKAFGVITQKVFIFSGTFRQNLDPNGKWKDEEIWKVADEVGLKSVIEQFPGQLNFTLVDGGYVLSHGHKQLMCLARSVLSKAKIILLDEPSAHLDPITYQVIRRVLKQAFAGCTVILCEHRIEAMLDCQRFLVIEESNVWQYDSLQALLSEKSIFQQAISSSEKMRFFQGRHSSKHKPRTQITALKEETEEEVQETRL

[3] = extracellular exposure, TEVC, Xenopus oocytes

hCFTR, sequence (P13569 whole entry): as the sequence (P13569 whole entry R352A) above, with A352R counted along it

O=C(O)c1cc([N+](=O)[O-])ccc1NCCCc1ccccc1 [NPPB]
Potentiation of hCFTR (hCFTR; channel incompletely phosphorylated, activated by a low concentration of PKA): potentiate
Potentiation of hCFTR (hCFTR; extremely high concentrations of NPPB): potentiate

O=C(NCc1ccc(Oc2ccccc2)cc1)c1nc(-c2cc(Br)c(O)c(Br)c2)no1 [iOWH-032, 3-(3,5-dibromo-4-hydroxyphenyl)-N-(4-phenoxybenzyl)-1,2,4-oxadiazole-5-carboxamide]
Inhibition of R352A human CFTR [1]: did not inhibit
Potentiation of R352A human CFTR [1]: potentiated
Inhibition of F508del human CFTR (F508del-hCFTR): did not inhibit
Potentiation of F508del human CFTR (F508del-hCFTR; [3]): potentiated
Kd ([2]; inhibition component, read-out: Kd of inhibition of WT-hCFTR): 6.1 nM
Kd ([2]; potentiation component, read-out: Kd of potentiation of WT-hCFTR): 0.64 nM
Potentiation of WT-hCFTR channels [2, 3]: potentiated

COc1ccc(Cl)cc1C(=O)NCCc1ccc(S(=O)(=O)NC(=O)NC2CCCCC2)cc1 [glibenclamide]
Potentiation of mCFTR (mCFTR): potentiate

O=C(CNc1ccc2ccccc2c1)N/N=C/c1cc(Br)c(O)c(Br)c1O [GlyH-101]
Potentiation of mCFTR (mCFTR): potentiate
